Where “and” joins values, the source holds several entries; their conditions need not be identical. Equal values may be shown once. Inconclusive results and toxic doses are left out. Rule as the data show it: active = T/C of 150% or more; inactive = T/C below 125%.
Tested on: L1210 leukemia ip in BDF1 mice, survival T/C
Test: NCI In Vivo Anticancer Drug Screen. Data for tumor model L1210 Leukemia (intraperitoneal) in B6D2F1 (BDF1) mice
Settings: endpoint: mean survival time, higher = longer survival
How it was run: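 Value reflects the ratio of survival in compound-treated mice to survival in vehicle-treated controls, with both groups carrying the same transplanted tumor.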

[1] = dose: 50.0 mg/kg/injection, schedule: Q01DX009 (ip), vehicle: saline
[2] = dose: 100.0 mg/kg/injection, schedule: Q01DX009 (ip), vehicle: saline
[3] = dose: 200.0 mg/kg/injection, schedule: Q01DX009 (ip), vehicle: saline
[4] = dose: 100.0 mg/kg/injection, schedule: Q04DX002 (ip), vehicle: Klucel (hydroxypropylcellulose) (HPC)
[5] = dose: 200.0 mg/kg/injection, schedule: Q04DX002 (ip), vehicle: Klucel (hydroxypropylcellulose) (HPC)
[6] = dose: 400.0 mg/kg/injection, schedule: Q04DX002 (ip), vehicle: Klucel (hydroxypropylcellulose) (HPC)
[7] = dose: 100.0 mg/kg/injection, schedule: Q04DX003 (ip), vehicle: saline
[8] = dose: 200.0 mg/kg/injection, schedule: Q04DX003 (ip), vehicle: saline
[9] = dose: 100.0 mg/kg/injection, schedule: Q04DX003 (ip), vehicle: Klucel (hydroxypropylcellulose) (HPC)
[10] = dose: 200.0 mg/kg/injection, schedule: Q04DX003 (ip), vehicle: Klucel (hydroxypropylcellulose) (HPC)
[11] = dose: 100.0 mg/kg/injection, schedule: Q01DX009 (ip), vehicle: Klucel (hydroxypropylcellulose) (HPC)
[12] = dose: 200.0 mg/kg/injection, schedule: Q01DX009 (ip), vehicle: Klucel (hydroxypropylcellulose) (HPC)
[13] = dose: 400.0 mg/kg/injection, schedule: Q04DX003 (ip), vehicle: Klucel (hydroxypropylcellulose) (HPC)
[14] = dose: 400.0 mg/kg/injection, schedule: Q01DX009 (ip), vehicle: saline
[15] = dose: 400.0 mg/kg/injection, schedule: Q04DX003 (ip), vehicle: saline
[16] = dose: 400.0 mg/kg/injection, schedule: Q01DX009 (ip), vehicle: Klucel (hydroxypropylcellulose) (HPC)
[17] = dose: 100.0 mg/kg/injection, schedule: Q01DX009 (ip), vehicle: saline with Tween-80
[18] = dose: 200.0 mg/kg/injection, schedule: Q01DX009 (ip), vehicle: saline with Tween-80
[19] = dose: 400.0 mg/kg/injection, schedule: Q01DX009 (ip), vehicle: saline with Tween-80
[20] = dose: 100.0 mg/kg/injection, schedule: Q01DX001 (ip), vehicle: Klucel (hydroxypropylcellulose) (HPC)
[21] = dose: 200.0 mg/kg/injection, schedule: Q01DX001 (ip), vehicle: Klucel (hydroxypropylcellulose) (HPC)
[22] = dose: 400.0 mg/kg/injection, schedule: Q01DX001 (ip), vehicle: Klucel (hydroxypropylcellulose) (HPC)

Measured: T/C

Cc1ccccc1C(=O)Nc1ccccc1
inactive: [1] 103 % of control | [2] 100 % of control | [3] 103 % of control

CSc1nc(Cl)nc(C(Cl)Cl)c1Cl
inactive: dose: 12.5 mg/kg/injection, schedule: Q01DX009 (ip), vehicle: other 93 % of control | dose: 25.0 mg/kg/injection, schedule: Q01DX009 (ip), vehicle: other 107 % of control | dose: 50.0 mg/kg/injection, schedule: Q01DX009 (ip), vehicle: other 89 % of control and 90 % of control

CCOC(=O)COc1ccc(-c2ccccc2)cc1Br
inactive: [4] 104 % of control | [5] 104 % of control | [6] 104 % of control

CC#CCCC(=O)OCCCC
inactive: dose: 100.0 mg/kg/injection, schedule: Q04DX002 (ip), vehicle: saline with Tween-80 101 % of control | dose: 200.0 mg/kg/injection, schedule: Q04DX002 (ip), vehicle: saline with Tween-80 93 % of control | dose: 400.0 mg/kg/injection, schedule: Q04DX002 (ip), vehicle: saline with Tween-80 97 % of control

Cc1ccc(S(=O)(=O)NCCN)cc1
inactive: [7] 97 % of control | [8] 97 % of control

CC(=O)OC1OC(CS[As](C)C)C(OC(C)=O)C(OC(C)=O)C1OC(C)=O (configuration not stated)
inactive: [9] 94 % of control | [10] 105 % of control

CC(C)C(CN)(CCCCN1CCCCC1)c1cccc2ccccc12 (configuration not stated)
inactive: dose: 100.0 mg/kg/injection, schedule: Q04DX003 (ip), vehicle: saline with Tween-80 95 % of control

NCC(=O)OC(c1ccccc1)(c1ccccc1)c1ccccc1
inactive: [11] 96 % of control | [9] 98 % of control | [12] 96 % of control | [10] 88 % of control | [13] 89 % of control

CC(O)(c1ccc(Br)cc1)C(c1ccccc1)c1ccccn1 (configuration not stated)
inactive: [1] 103 % of control | [2] 94 % of control | [7] 110 % of control | [3] 94 % of control | [8] 103 % of control | [14] 101 % of control | [15] 110 % of control

Cc1ccc(NC(=O)C(c2ccccc2)c2ccccc2)cc1Cl
inactive: [11] 108 % of control | [9] 88 % of control | [12] 95 % of control | [10] 91 % of control | [16] 108 % of control | [13] 101 % of control

NC(=O)C1NC(=O)NC1=O (configuration not stated)
inactive: [17] 88 % of control | [18] 93 % of control | [19] 97 % of control

O=C1OC(c2ccccc2)=N/C1=C/c1cccs1
inactive: [11] 104 % of control | [9] 98 % of control | [12] 97 % of control | [10] 104 % of control | [16] 101 % of control | [13] 106 % of control

COC(=O)N/N=C/c1ccccc1OC
inactive: [4] 104 % of control | [5] 104 % of control | [6] 93 % of control

O=Nc1cc(-c2nccc3ccccc23)[nH]c1-c1ccccc1
inactive: dose: 100.0 mg/kg/injection, schedule: Q01DX001 (ip), vehicle: other 94 % of control | dose: 200.0 mg/kg/injection, schedule: Q01DX001 (ip), vehicle: other 96 % of control | dose: 400.0 mg/kg/injection, schedule: Q01DX001 (ip), vehicle: other 94 % of control

CCCCCCCOCc1ccccc1
inactive: [7] 111 % of control | dose: 200.0 mg/kg/injection, schedule: Q04DX003 (ip), vehicle: acetone 94 % of control | dose: 300.0 mg/kg/injection, schedule: Q04DX003 (ip), vehicle: acetone 96 % of control | [15] 97 % of control

c1cncc(CNc2ncn[nH]2)c1
inactive: [2] 103 % of control | [7] 97 % of control | [3] 97 % of control | [8] 103 % of control | [14] 103 % of control | [15] 95 % of control

NS(=O)(=O)c1ccc(NC(=O)Nc2cccc(CNC(=O)COc3ccc(Cl)cc3C(=O)O)c2)cc1
inactive: [20] 98 % of control | [21] 91 % of control | [22] 98 % of control

CCN(CCNC(=O)Nc1ccc(OC)cc1)c1ccccc1
inactive: dose: 100.0 mg/kg/injection, schedule: Q01DX009 (ip), vehicle: carboxymethylcellulose (CMC) 93 % of control and 100 % of control | [4] 103 % of control | dose: 100.0 mg/kg/injection, schedule: Q04DX002 (ip), vehicle: other 94 % of control and 98 % of control | dose: 100.0 mg/kg/injection, schedule: Q04DX003 (ip), vehicle: carboxymethylcellulose (CMC) 96 % of control | dose: 200.0 mg/kg/injection, schedule: Q01DX009 (ip), vehicle: carboxymethylcellulose (CMC) 93 % of control and 104 % of control | [5] 100 % of control | dose: 200.0 mg/kg/injection, schedule: Q04DX002 (ip), vehicle: other 91 % of control | dose: 200.0 mg/kg/injection, schedule: Q04DX003 (ip), vehicle: carboxymethylcellulose (CMC) 100 % of control | dose: 400.0 mg/kg/injection, schedule: Q01DX009 (ip), vehicle: carboxymethylcellulose (CMC) 96 % of control and 100 % of control | [6] 107 % of control | dose: 400.0 mg/kg/injection, schedule: Q04DX002 (ip), vehicle: other 102 % of control and 88 % of control | dose: 400.0 mg/kg/injection, schedule: Q04DX003 (ip), vehicle: carboxymethylcellulose (CMC) 96 % of control

O=CNc1ccc2c3c(cccc13)CC2
inactive: [20] 101 % of control | [21] 93 % of control | [22] 108 % of control

CC(C)C1(C(C)C)OCC(CO)O1 (configuration not stated)
inactive: dose: 25.0 mg/kg/injection, schedule: Q01DX009 (ip), vehicle: saline 93 % of control | dose: 25.0 mg/kg/injection, schedule: Q04DX003 (ip), vehicle: saline 100 % of control | [1] 102 % of control | dose: 50.0 mg/kg/injection, schedule: Q04DX003 (ip), vehicle: saline 94 % of control | [2] 104 % of control | [7] 94 % of control | [3] 102 % of control | [8] 102 % of control | [14] 104 % of control | [15] 100 % of control

CCCCN(C)N=Nc1ccccc1C(=O)NN
inactive: dose: 100.0 mg/kg/injection, schedule: Q01DX001 (ip), vehicle: carboxymethylcellulose (CMC) 96 % of control | dose: 200.0 mg/kg/injection, schedule: Q01DX001 (ip), vehicle: carboxymethylcellulose (CMC) 107 % of control | dose: 400.0 mg/kg/injection, schedule: Q01DX001 (ip), vehicle: carboxymethylcellulose (CMC) 113 % of control

COc1ccc(/C=C2\CS(=O)(=O)C/C(=C\c3ccc(OC)cc3)C2=O)cc1
inactive: dose: 100.0 mg/kg/injection, schedule: Q01DX001 (ip), vehicle: saline 94 % of control | dose: 400.0 mg/kg/injection, schedule: Q01DX001 (ip), vehicle: saline 95 % of control

O=C(Nc1cccc(Cl)c1)c1ccccc1
inactive: [11] 94 % of control | [9] 92 % of control | [12] 94 % of control | [10] 90 % of control | [16] 97 % of control | [13] 101 % of control

CN(C)CCP(=O)(O)O
inactive: [17] 96 % of control | [18] 95 % of control | [19] 91 % of control

— PubChem BioAssay AID248 (DTP/NCI, 2004)
